Reference: patent US20080008652A1, “Methods and compositions for mediation of immune responses and adjuvant activity” (The Regents of the University of Michigan, priority 2006, published 2008)

Key:
[1] = test system: BMDM; assay: Cooperation of low-dose LPS with microbial ligands for IL-1β secretion; assay type: cell-based, mouse; conditions: for synergy with LPS for the secretion of IL-1β: WT BMDM, 10 ng ml−1 LPS and 10 ng ml−1 ligand, 24 h
Method: Measurements of cytokines. BMDM and peritoneal macrophages were prepared as previously described. Cells were stimulated with various microbial and synthetic ligands for 24 h and the supernatants were analyzed for IL-1β, IL-18, TNFα and IL-6 secretion. The following ligand concentrations were used: FLS-1, Pam3CSKKK4, LPS, lipoteichoic acid, lipid A and MDP were used at 1 μg ml^−1. For analysis of cooperation of LPS with various ligands, 10 ng ml^−1 of LPS and 10 ng ml^−1 of various ligands were used. In some experiments, the macrophages were stimulated with ligands for 16 h and then with medium containing 2 mM ATP (Sigma) for 30 min, washed, and cultured for an additional 5 h. Mouse cytokines were measured in culture supernatants with enzyme-linked immunoabsorbent assay (ELISA) kits (R and D Systems, Minneapolis, Minn.).

[2] = test system: HSA-specific immunoglobulin; assay: Adjuvant activity: HSA-specific serum immunoglobulin after immunization; assay type: in vivo, mouse
Method: Immunization of mice. […] Serum sample were obtained two weeks after the first immunization and one week after the boost, and antigen specific serum immunoglobulin was assessed by ELISA using antibodies against mouse immunoglobulin and isotype controls (Southern Biotechnology).

[3] = test system: caspase-1; assay: Caspase-1 activation (pro-caspase-1 processing) in macrophages, Western blotting; assay type: cell-based, mouse; conditions: for proteolytic processing of pro-caspase-1 (mature 20 kDa subunit): WT macrophages, ligand 1-3 h, then ATP 30 min
[4] = test system: peritoneal macrophages and bone marrow-derived macrophages (BMDM); assay: Cytokine secretion (IL-1β, IL-18, TNFα, IL-6) by stimulated macrophages, ELISA; assay type: cell-based, mouse; conditions: for secretion of IL-1β with brief ATP treatment: ligand 16 h, then 2 mM ATP 30 min; for requirement of endosomal acidification for IL-1β secretion: FIG. 12
[5] = test system: NF-κB, ERK and p38; assay: NF-κB and MAPK (ERK, p38) activation in macrophages, Western blotting; assay type: cell-based, mouse; conditions: R837 5 μg ml-1
[6] = test system: IL-1β, IL-6 and TNFα in serum; assay: Serum cytokines after co-injection of LPS and R837 into mice, ELISA; assay type: in vivo, mouse
Method: (200 μg) or LPS plus […] (200 μg each) and levels of IL-1β (a), IL-6 (b) or TNFα (c) in serum were determined by ELISA at the indicated times.

[7] = test system: mice; assay: LPS-induced endotoxic shock, survival; assay type: in vivo, mouse; conditions: WT compared with cryopyrin−/− mice; 200 μg or 400 μg LPS
Method: Indicated numbers of wild-type and cryopyrin−/− mice (8 to 12 weeks old) were challenged with 200 μg (a) or 400 μg (b) of LPS and the survival over time of each mouse genotype was plotted.

[8] = WT compared with cryopyrin−/− macrophages
[9] = WT compared with cryopyrin−/− peritoneal macrophages or BMDM, 24 h stimulation, ELISA
[10] = WT compared with cryopyrin−/− macrophages, R837 stimulation 24 h
[11] = cryopyrin−/− compared with WT mice, R837 100 μg and HSA 50 μg i.p., 2 weeks after immunization
[12] = WT mice, co-injection of LPS and R837 compared with each alone
[13] = cryopyrin−/− mice, LPS plus R837

## 5′-TCCATGACGTTCCTGACGTT-3′ [CpG]
[1]
  synergy with LPS for the secretion of IL-1β: not
[2]; WT compared with cryopyrin−/− mice, CpG 100 μg and HSA 50 μg, boosted 3 weeks later
  enhancement of HSA-specific IgG responses: unaffected by cryopyrin deficiency

## CC(=O)N[C@H]1C(O)O[C@H](CO)[C@@H](O)[C@@H]1O[C@H](C)C(=O)N[C@@H](C)C(=O)N[C@H](CCC(=O)O)C(N)=O (mixture of isomers) [MDP, muramyl dipeptide]
[3]
  proteolytic processing of pro-caspase-1 (mature 20 kDa subunit): did not induce proteolytic processing of pro-caspase-1
[4]; [8]
  secretion of IL-1β with brief ATP treatment: did not induce secretion of IL-1β over background levels
[4]; [9]
  secretion of IL-1β: did not induce secretion of IL-1β over background levels

## CC(C)Cn1cnc2c(N)nc3ccccc3c21 [R837, Imiquimod]
[5]; TLR7- and MyD88-deficient macrophages
  activation of NF-κB and MAPKs: abolished in TLR7- and MyD88-deficient macrophages
[5]; WT compared with cryopyrin−/− BMDM
  NF-κB, ERK and p38 activation: induced comparable levels of NF-κB, ERK and p38 activation in WT and cryopyrin−/− macrophages
[3]; TLR7- or MyD88-deficient macrophages
  activation of caspase-1: proceeded normally
[3]
  proteolytic processing of pro-caspase-1 (mature 20 kDa subunit): induced in WT macrophages
[3]; cryopyrin−/− macrophages
  activation of caspase-1: abrogated in macrophages lacking cryopyrin
[3]; macrophages lacking ASC
  activation of caspase-1: abrogated
[4]
  requirement of endosomal acidification for IL-1β secretion: not required
[4]; [10]
  production of IL-6: need for cryopyrin: cryopyrin was dispensable
  production of TNFα: need for cryopyrin: cryopyrin was dispensable
[4]; [8]
  secretion of IL-1β with brief ATP treatment: Cryopyrin is required
[4]; [9]
  secretion of IL-1β: abrogated
  secretion of IL-18: abrogated
[1]; cryopyrin−/− macrophages
  enhancement of LPS-mediated IL-1β production: abrogated in cryopyrin−/− macrophages
[2]; [11]
  production of antigen specific IgG1: exhibited a defect
  production of antigen specific IgG2a/c: exhibited a defect
  production of antigen specific IgG3: exhibited a defect
[6]; WT mice, co-administration of R837 and LPS (200 μg each) compared with each alone
  levels of IL-1β in serum: higher levels of IL-1β in serum than injection of R837 or LPS alone
[6]; [12]
  serum levels of IL-6: enhanced
  serum levels of TNFα: enhanced
[6]; [13]
  serum levels of IL-6: Reduced levels
  serum levels of TNFα: Reduced levels
[6]; cryopyrin−/− mice, LPS plus R837 200 μg each
  enhancement of the LPS response (serum IL-1β) by R837: abolished in cryopyrin−/− mice

## CCN(CC)CCCC(C)Nc1ccnc2cc(Cl)ccc12 (stereo not shown) [chloroquine]
[4]; treatment of macrophages with chloroquine
  effect on production of IL-1β induced by bacterial RNA: did not affect

## Pam2CGDPKHPHSF
[4]; [9]
  secretion of IL-1β: induced comparable levels of IL-1β in wild-type (WT) and cryopyrin−/− macrophages

## Pam3CSK4
[4]; [9]
  secretion of IL-1β: induced comparable levels of IL-1β in wild-type (WT) and cryopyrin−/− macrophages

## flagellin
[1]
  synergy with LPS for the secretion of IL-1β: not

## lipid A
[3]; cryopyrin−/− macrophages
  activation of caspase-1: unimpaired in cryopyrin−/− macrophages
[4]; [9]
  secretion of IL-1β: induced comparable levels of IL-1β in wild-type (WT) and cryopyrin−/− macrophages
[1]
  synergy with LPS for the secretion of IL-1β: not

## lipopolysaccharide [LPS]
[7]
  lethality of high doses of LPS: comparable lethality in WT and cryopyrin−/− mice
[3]; cryopyrin−/− macrophages
  activation of caspase-1: unimpaired in cryopyrin−/− macrophages
[4]
  requirement of endosomal acidification for IL-1β secretion: not required
[4]; [9]
  secretion of IL-1β: induced comparable levels of IL-1β in wild-type (WT) and cryopyrin−/− macrophages

## lipoteichoic acid
[4]; [9]
  secretion of IL-1β: induced comparable levels of IL-1β in wild-type (WT) and cryopyrin−/− macrophages
[1]
  synergy with LPS for the secretion of IL-1β: not
